This is an account of results in paper PMC3767384 (The Biochemical journal, 2012).

The test system of data set [1] is primary bovine retinal endothelial cells (BREC). Nature of the data set: In vitro permeability assay, VEGF-induced, 70 kDa RITC-Dextran. In kind it is cell-based. Particulars: siRNA transfection for 72 h, 50 ng/ml VEGF.
Data set [2] deals with PKCβ. As to conditions: oral administration; cited from earlier work.
Data set [3] deals with visual loss in diabetic retinopathy. As to conditions: clinical trials; cited from earlier work.

As for “5’-GCAAUGAACACCAGGGAAA-3’ [PKCι Construct A]”, the “Effect on VEGF-induced increase in retinal endothelial permeability” value in data set [1] is given as “prevented the VEGF-induced increase in retinal endothelial permeability”.

As for `CN(C)C[C@@H]1CCn2cc(c3ccccc32)C2=C(C(=O)NC2=O)c2cn(c3ccccc23)CCO1` [ruboxistaurin], the “Effect on diabetes induced-endothelial proliferation and permeability” value in data set [2] was “prevents these pathologic outcomes”. For the same compound, in data set [3], the “Effect on visual loss” value is reported as “delays sustained moderate visual loss in diabetic retinopathy”.
